Key:
[1] = 100 kPa, Liquid, Capillary tube (Ostwald / Ubbelohde) method
[2] = xn = mol fraction of the nth substance listed; settings: 100 kPa, Liquid; for thermal conductivity: Hot wire method

OCCO [1,2-ethanediol]
[1]
Settings	viscosity [mPa·s]
295.55 K	19.1
313.05 K	9.74
333.1 K	5.24
353.05 K	3.13
372.15 K	2.06
392.45 K	1.44
412.25 K	1.07
428.3 K	0.867

OCCOCCO [diethylene glycol] + O
[2]
Settings	mass density [kg/m3]	thermal conductivity [W/m/K]	viscosity [mPa·s]
293.45 K, x1 = 0.5	1111	–	22
294.05 K, x1 = 0.75	1115	–	30.4
294.25 K, x1 = 0.25	1095	–	9.79
294.4 K, x1 = 0.25	–	0.291	–
295.9 K, x1 = 0.5	–	0.235	–
296.4 K, x1 = 0.75	–	0.209	–
312.95 K, x1 = 0.5	1097	–	9.64
313.05 K, x1 = 0.25	1081	–	4.88
313.05 K, x1 = 0.75	1101	–	13.3
322.1 K, x1 = 0.5	–	0.244	–
323.4 K, x1 = 0.25	–	0.31	–
323.8 K, x1 = 0.75	–	0.213	–
332.95 K, x1 = 0.5	1082	–	5.03
333.05 K, x1 = 0.25	1066	–	2.76
333.05 K, x1 = 0.75	1087	–	6.75
347.4 K, x1 = 0.25	–	0.315	–
347.8 K, x1 = 0.5	–	0.249	–
349.6 K, x1 = 0.75	–	0.217	–
352.95 K, x1 = 0.5	1066	–	3.01
353.05 K, x1 = 0.75	1071	–	3.9
353.15 K, x1 = 0.25	1051	–	1.76
371.9 K, x1 = 0.5	–	0.258	–
373 K, x1 = 0.25	–	0.322	–
373.2 K, x1 = 0.75	–	0.219	–
380.05 K, x1 = 0.5	1043	–	–
381.45 K, x1 = 0.25	1027	–	–
382.55 K, x1 = 0.5	–	–	1.66
382.55 K, x1 = 0.75	1048	–	–
384.95 K, x1 = 0.25	–	–	1.03
385.05 K, x1 = 0.75	–	–	2
390.25 K, x1 = 0.5	1035	–	–
390.95 K, x1 = 0.75	1042	–	–
392.75 K, x1 = 0.25	1017	–	–
394.25 K, x1 = 0.5	–	–	1.37
394.95 K, x1 = 0.75	–	–	1.72
395.6 K, x1 = 0.5	–	0.257	–
396 K, x1 = 0.25	–	0.325	–
396.75 K, x1 = 0.25	–	–	0.912
396.9 K, x1 = 0.75	–	0.217	–
405.35 K, x1 = 0.5	1023	–	–
406.95 K, x1 = 0.75	1029	–	–
409.25 K, x1 = 0.25	1004	–	–
409.35 K, x1 = 0.5	–	–	1.12
410.95 K, x1 = 0.75	–	–	1.35
413.25 K, x1 = 0.25	–	–	0.743
421.5 K, x1 = 0.25	–	0.33	–
421.6 K, x1 = 0.75	–	0.222	–
422 K, x1 = 0.5	–	0.256	–
424.25 K, x1 = 0.5	1006	–	–
424.65 K, x1 = 0.75	1014	–	–
426.35 K, x1 = 0.25	987.6	–	–
428.25 K, x1 = 0.5	–	–	0.865
428.65 K, x1 = 0.75	–	–	1.05
430.35 K, x1 = 0.25	–	–	0.61
441.65 K, x1 = 0.25	973.3	–	–
443.05 K, x1 = 0.5	988.2	–	–
443.65 K, x1 = 0.75	996.3	–	–
445.65 K, x1 = 0.25	–	–	0.521
446.8 K, x1 = 0.75	–	0.213	–
447 K, x1 = 0.5	–	0.253	–
447.05 K, x1 = 0.5	–	–	0.707
447.5 K, x1 = 0.25	–	0.328	–
447.65 K, x1 = 0.75	–	–	0.838

OCCOCCOCCO [triethylene glycol]
[1]
Settings	viscosity [mPa·s]
299.65 K	35.1
313.05 K	19.5
333.1 K	9.66
353.05 K	5.55
373.5 K	3.41
393.3 K	2.36
413.25 K	1.71
428.1 K	1.39

OCCO [1,2-ethanediol] + O
[2]
Settings	mass density [kg/m3]	thermal conductivity [W/m/K]	viscosity [mPa·s]
296.4 K, x1 = 0.25	1068	–	–
296.45 K, x1 = 0.25	–	–	3.69
297.05 K, x1 = 0.5	1094	–	7.61
297.35 K, x1 = 0.75	1106	–	12.3
298.5 K, x1 = 0.75	–	0.269	–
303.4 K, x1 = 0.25	–	0.391	–
312.3 K, x1 = 0.5	–	0.316	–
313.05 K, x1 = 0.25	1058	–	2.29
313.05 K, x1 = 0.5	1083	–	4.49
313.05 K, x1 = 0.75	1094	–	6.97
323.6 K, x1 = 0.25	–	0.4	–
324.2 K, x1 = 0.75	–	0.272	–
324.4 K, x1 = 0.5	–	0.314	–
333.05 K, x1 = 0.25	1045	–	1.47
333.1 K, x1 = 0.5	1069	–	2.62
333.1 K, x1 = 0.75	1080	–	3.88
347.5 K, x1 = 0.75	–	0.277	–
347.7 K, x1 = 0.5	–	0.324	–
348.6 K, x1 = 0.25	–	0.416	–
353.05 K, x1 = 0.25	1030	–	0.99
353.05 K, x1 = 0.5	1054	–	1.7
353.05 K, x1 = 0.75	1065	–	2.42
371.9 K, x1 = 0.75	–	0.281	–
372 K, x1 = 0.25	–	0.423	–
372.8 K, x1 = 0.5	–	0.33	–
373.45 K, x1 = 0.75	1049	–	1.62
374.85 K, x1 = 0.25	1013	–	–
376.05 K, x1 = 0.5	1035	–	–
378.85 K, x1 = 0.25	–	–	0.689
380.05 K, x1 = 0.5	–	–	1.07
383.35 K, x1 = 0.75	1041	–	1.37
390.25 K, x1 = 0.5	1023	–	–
393.2 K, x1 = 0.75	1033	–	1.18
394.25 K, x1 = 0.5	–	–	0.87
395.9 K, x1 = 0.25	–	0.428	–
396.8 K, x1 = 0.75	–	0.28	–
396.95 K, x1 = 0.25	995.5	–	–
397 K, x1 = 0.5	–	0.332	–
400.95 K, x1 = 0.25	–	–	0.518
403.15 K, x1 = 0.75	1025	–	1.02
404.75 K, x1 = 0.75	1023	–	–
406.05 K, x1 = 0.5	1010	–	–
407.75 K, x1 = 0.75	–	–	0.978
410.05 K, x1 = 0.5	–	–	0.706
413.15 K, x1 = 0.75	1016	–	0.903
417.15 K, x1 = 0.25	977.4	–	–
418.35 K, x1 = 0.75	1012	–	–
419.9 K, x1 = 0.75	–	0.279	–
421 K, x1 = 0.25	–	0.432	–
421.15 K, x1 = 0.25	–	–	0.418
421.7 K, x1 = 0.5	–	0.32	–
422.35 K, x1 = 0.75	–	–	0.806
423.55 K, x1 = 0.5	994.5	–	–
427.55 K, x1 = 0.5	–	–	0.573
431.55 K, x1 = 0.25	964.9	–	–
431.95 K, x1 = 0.75	1000	–	–
435.55 K, x1 = 0.25	–	–	0.366
435.95 K, x1 = 0.75	–	–	0.691
436.65 K, x1 = 0.5	982.5	–	–
440.65 K, x1 = 0.5	–	–	0.5
441.6 K, x1 = 0.75	–	0.276	–
445.85 K, x1 = 0.75	987	–	–
449.85 K, x1 = 0.75	–	–	0.594

OCCOCCO [diethylene glycol]
[1]
Settings	viscosity [mPa·s]
294.2 K	35.1
313.05 K	15.1
333.05 K	7.64
353.05 K	4.41
373.6 K	2.76
393.4 K	1.92
413.25 K	1.41
428.15 K	1.15

OCCOCCOCCO [triethylene glycol] + O
[2]
Settings	mass density [kg/m3]	thermal conductivity [W/m/K]	viscosity [mPa·s]
293.85 K, x1 = 0.25	1108	–	19.2
294.05 K, x1 = 0.5	1120	–	36
294.15 K, x1 = 0.75	1122	–	43.2
295 K, x1 = 0.25	–	0.258	–
295.5 K, x1 = 0.5	–	0.21	–
295.5 K, x1 = 0.75	–	0.195	–
313.05 K, x1 = 0.25	1093	–	8.6
313.05 K, x1 = 0.5	1105	–	15.2
313.05 K, x1 = 0.75	1108	–	18.3
323.8 K, x1 = 0.25	–	0.268	–
324.6 K, x1 = 0.5	–	0.216	–
327.1 K, x1 = 0.75	–	0.197	–
333.05 K, x1 = 0.25	1078	–	4.52
333.05 K, x1 = 0.5	1089	–	7.52
333.05 K, x1 = 0.75	1092	–	9.04
349.1 K, x1 = 0.25	–	0.275	–
349.5 K, x1 = 0.5	–	0.219	–
349.8 K, x1 = 0.75	–	0.201	–
353.05 K, x1 = 0.25	1061	–	2.7
353.05 K, x1 = 0.5	1073	–	4.32
353.05 K, x1 = 0.75	1076	–	5.19
372.7 K, x1 = 0.75	–	0.202	–
373.6 K, x1 = 0.5	–	0.22	–
373.8 K, x1 = 0.25	–	0.28	–
379.65 K, x1 = 0.25	1039	–	–
382.15 K, x1 = 0.25	–	–	1.5
384.25 K, x1 = 0.5	1046	–	–
384.95 K, x1 = 0.75	1049	–	–
386.75 K, x1 = 0.5	–	–	2.09
387.45 K, x1 = 0.75	–	–	2.41
389.35 K, x1 = 0.25	1030	–	–
391.35 K, x1 = 0.5	1041	–	–
392.55 K, x1 = 0.75	1044	–	–
393.35 K, x1 = 0.25	–	–	1.27
395.35 K, x1 = 0.5	–	–	1.84
396 K, x1 = 0.5	–	0.221	–
396.4 K, x1 = 0.25	–	0.285	–
396.55 K, x1 = 0.75	–	–	2.11
397.6 K, x1 = 0.75	–	0.2	–
405.75 K, x1 = 0.25	1016	–	–
407.45 K, x1 = 0.75	1032	–	–
407.85 K, x1 = 0.5	1028	–	–
409.75 K, x1 = 0.25	–	–	1
411.45 K, x1 = 0.75	–	–	1.68
411.85 K, x1 = 0.5	–	–	1.43
421.3 K, x1 = 0.25	–	0.292	–
421.9 K, x1 = 0.5	–	0.221	–
422.5 K, x1 = 0.75	–	0.198	–
423.35 K, x1 = 0.25	999.2	–	–
425.35 K, x1 = 0.75	1016	–	–
425.95 K, x1 = 0.5	1011	–	–
427.35 K, x1 = 0.25	–	–	0.813
429.35 K, x1 = 0.75	–	–	1.3
429.95 K, x1 = 0.5	–	–	1.11
442.45 K, x1 = 0.25	980	–	–
443.45 K, x1 = 0.5	995	–	–
444.55 K, x1 = 0.75	999.5	–	–
445 K, x1 = 0.25	–	0.282	–
446.45 K, x1 = 0.25	–	–	0.662
446.5 K, x1 = 0.75	–	0.195	–
447.45 K, x1 = 0.5	–	–	0.903
448.3 K, x1 = 0.5	–	0.216	–
448.55 K, x1 = 0.75	–	–	1.03

Reference: the NIST ThermoML archive (doi:10.1021/je025610o)
